This note sets out measurements from article PMC12040169 (PLOS Biology, 2025).

As a reminder, the viability is a read-out of living cells in per cent, often relative to untreated cells.

One series in a line: in vitro. The note with it: human, hela cells, % viability.
On to `CS(=O)(=O)N[C@H]1C[C@H]2C(=O)Nc3ccc(-c4ccc(F)cc4F)cc3C(=O)N2C1` [CBK289368], for which the viability at 28.5 h, 10 µM came out at 85.3%.
Consider `Cc1c(NC(=S)NC(=O)COc2ccc(Cl)cc2)cccc1C(=O)O` [CBK265070], for which the viability at 28.5 h, 10 µM was 103%.
On the same count and under the same terms, the same measure for `c1cncc(COc2nccnc2N2CCCC2)c1` [CBK115890]: 101%; for `Nc1cc(NC(=O)c2cccc(C(=O)Nc3ccc(Cl)c(N)c3)c2)ccc1Cl` [CBK261379]: 94.1%.
The same measure, in the same setting: the same measure for `CCOC(=O)c1sc(-c2ccc3c(c2)OCO3)nc1O` [CBK078565]: 97.2%.
Take `Cc1cc(NS(=O)(=O)N2CCCCC2)no1` [CBK269947]: the viability at 28.5 h, 10 µM is 100%.
For the molecule `O=C(NCCS(=O)(=O)c1ccccc1)c1cnc(-c2ccc(Cl)cc2)c(-c2ccncc2)c1` [CBK037587], the viability at 28.5 h, 10 µM stood at 100%.
On the same count and under the same terms, to `Cc1cccc(-c2nc(C(N)=O)c3[nH]c(=O)n(-c4ccc(F)cc4)c3n2)c1` [CBK287632] belongs 111%; to `C=CCN1C(=O)CC2(C1=O)C(=O)N(C)c1ccccc12` (stereo not shown) [CBK075472], 99%; to `COc1cc(CN2CCN(S(=O)(=O)c3ccc(F)cc3)CC2)cc(OC)c1O` [CBK264269G], 103%.
On the same count and under the same terms, the same measure for `COc1ccc(Cc2nc(CCNC(C)=O)n(CC(F)(F)F)n2)cc1` [CBK307287]: 77.8%.
Same read-out and setting: to `COCC(=O)Nc1cc(OC)c(Cl)cc1OC` [CBK264448] belongs 103%; to `CC(C)C(=O)N1CC2(CCN(Cc3ccc(Cl)c(Cl)c3)CC2)c2ccccc21` [CBK126715], 94.7%.
`CCCN(CCC#N)S(=O)(=O)c1ccc(C(C)C)cc1` [CBK043453]: the viability at 28.5 h, 10 µM worked out at 94.4%.
As to `O=C(NC(c1ccc(-c2ccccc2)cc1)c1cnccn1)C1CCN(CCCN2C(=O)C3CCCCC3C2=O)CC1` (stereo not shown) [CBK147856], the viability at 28.5 h, 10 µM amounted to 97.3%.
The same measure, in the same setting: to `O=C(Nc1cc2ccccc2c(Br)n1)c1ccc(C(F)(F)F)cc1[N+](=O)[O-]` [CBK063299] belongs 92.5%.
Regarding `Cc1n[nH]c(C)c1CNC(=O)C1(c2ccccc2F)CC1` [CBK283156], the viability at 28.5 h, 10 µM came to 96.4%.
Still for that read-out and setting: to `CC(C)(C)OC(=O)N[C@@H](Cc1ccccc1)CN(Cc1ccccc1)Cc1ccc(S(=O)(=O)N2CCOC2=O)cc1` [CBK028952] belongs 86.1%.
As to `O=C(c1cccc(O)c1)N1CCN(Cc2cn3ccsc3n2)CC1` [CBK305275], the viability at 28.5 h, 10 µM amounted to 76%.
Same read-out and setting: to `CC(Oc1nccnc1OCc1ccc(Cl)c(Cl)c1)c1ccncc1` (stereo not shown) [CBK161609] belongs 84.1%; to `Cc1ccc(S(=O)(=O)c2nc(NCCN3CCOCC3)sc2Cl)cc1` [CBK269615], 79.7%; to `Cc1ccccc1OCc1nnc(SCc2nnc(-c3ccccc3)o2)n1C` [CBK267406], 90.1%.
As for `CCc1c(C)cc(C(=O)N(C)C(CC)c2ccccn2)c(=O)n1C` (stereo not shown) [CBK307078], the viability at 28.5 h, 10 µM was found to be 95.6%.
Same read-out and setting: to `CN1CCN(c2ccc(-c3cccc(N(C)C)c3)cn2)CC1` [CBK037621] belongs 102%; to `Cc1nc(CN2CCN(c3ccc4nnc(C(F)(F)F)n4n3)CC2)cs1` [CBK239750], 95.1%; to `COc1cc2c(cc1OC)CN(C(=O)c1ccc3[nH]cnc3c1)CC2` [CBK295331], 52.8%.
Same read-out and setting: the same measure for `O=C(Nc1nccs1)c1ccc2[nH]ccc2c1` [CBK161731]: 90.5%.
As for `O=C(O)c1cccc(NCN2C(=O)c3ccc([N+](=O)[O-])cc3C2=O)c1` [CBK261100], the viability at 28.5 h, 10 µM worked out at 96%.
On the same count and under the same terms, the same measure for `O=C(O)CCN1C(=O)COc2ccc(Cl)cc21` [CBK287192]: 107%; for `CC(=O)N1CCc2cc(C(O)CN3CCCC4CCCCC43)ccc21` (stereo not shown) [CBK282924]: 93.6%; for `Cc1ccc(Nc2ncc(C(=O)NCCCN3CCCCCC3)c3ccccc23)cc1Cl` [CBK291197]: 105%.
Still for that read-out and setting: to `O=C(COc1ccc(F)cc1)N1CCCC1c1cccc(Cc2ccc(F)cc2)n1` (stereo not shown) [CBK286235] belongs 99.3%.
Still for that read-out and setting: to `CCCCCOc1ccc(C2NC(=O)NC2=O)cc1` (stereo not shown) [CBK287865] belongs 89%; to `N#Cc1ccc(CNC(=O)N2CCc3ccccc3C2)cc1` [CBK155287], 107%; to `Cn1c(Cc2csc(NC(=O)CNC(=O)Cc3ccccc3)n2)n[nH]c1=S` [CBK296765], 102%.
As for `COc1ccc(C(=O)NC(=N)NCCc2c[nH]c3ccccc23)cc1` [CBK267840], the viability at 28.5 h, 10 µM is 111%.
The same measure, in the same setting: to `Cc1cc(C)nc(SCc2nc(N)nc(-c3ccccc3O)n2)n1` [CBK266725] belongs 94.4%.
With `Clc1ccc(CN2CCC(Oc3nccnc3OC3CCCCC3)CC2)cc1` [CBK082856T], the viability at 28.5 h, 10 µM stood at 101%.
On to `CC(C)(C)CC(=O)O/N=C(\N)c1ccccn1` [CBK265779], for which the viability at 28.5 h, 10 µM was found to be 105%.
Consider `COc1ccccc1C(=O)NCCCc1nc2ccccc2[nH]1` [CBK269837], for which the viability at 28.5 h, 10 µM came out at 87.1%.
With `COc1ccc(Cl)cc1N/C=C(/C#N)c1nc(-c2cc3cc([N+](=O)[O-])ccc3oc2=O)cs1` [CBK263014], the viability at 28.5 h, 10 µM amounted to 102%.
On the same count and under the same terms, the same measure for `CSc1nc(SCC(=O)N(c2ccccc2)c2ccccc2)c2c3c(sc2n1)CCC3` [CBK267715]: 90.6%; for `CNC(=O)c1ccc(NC(=O)N2CCCCC2c2ccnn2C)cc1` (stereo not shown) [CBK305521]: 112%.
Turning to `Cc1cc(CCCC(=O)N2CCCC(c3ccc(Nc4ncccn4)cn3)C2)ccc1F` (stereo not shown) [CBK286003], the viability at 28.5 h, 10 µM came to 78.6%.
As for `Cc1nnc(Sc2nc3ccccc3nc2C(F)(F)F)s1` [CBK093774], the viability at 28.5 h, 10 µM was 94.8%.
Regarding `Cn1cccc1C(=O)N[C@H]1C[C@H]2C(=O)Nc3cc(Cl)ccc3C(=O)N2C1` [CBK289364], the viability at 28.5 h, 10 µM is 86.7%.
With `COc1ccc2[nH]c(C(=O)N3CCn4nc(CO)cc4C3)c(C)c2c1` [CBK307302], the viability at 28.5 h, 10 µM amounted to 106%.
Take `CC(NC(=O)/C(=C\c1ccc(Cl)cc1)NC(=O)c1ccco1)C(=O)O` (stereo not shown) [CBK263617]: the viability at 28.5 h, 10 µM is 93%.
Same read-out and setting: the same measure for `Cc1nnc(SCc2nnnn2-c2ccccc2)nc1O` [CBK266302]: 101%.
On the same count and under the same terms, the same measure for `CCNC(=O)C1(Cc2ccccc2-c2ccccc2C)CCN(C(=O)c2ccccc2)CC1` [CBK285716]: 96.6%.
Take `Cc1ncc([N+](=O)[O-])n1CC(=O)NC1CCCCCC1` [CBK269194]: the viability at 28.5 h, 10 µM amounted to 97.4%.
As to `O=C(O)CCc1ccc(-c2ccc(Cl)cc2)n1Cc1ccco1` [CBK265984], the viability at 28.5 h, 10 µM stood at 92.4%.
Same read-out and setting: the same measure for `O=C(O)COCc1nn(-c2ccc(Br)cc2)c2c1CCCC2` [CBK016404]: 98.6%; for `CCC(C)c1ccc(OCC(=O)Nc2ccc3[nH]c(=O)[nH]c3c2)cc1` (stereo not shown) [CBK266911]: 105%; for `O=C(CCn1c2ccccc2c2ccccc21)NNC(=S)Nc1ccccc1` [CBK262106]: 94.6%.
As for `Cc1cccc(C(=O)Nc2nnc(-c3ccncc3)o2)c1` [CBK287430], the viability at 28.5 h, 10 µM amounted to 91.5%.
On the same count and under the same terms, the same measure for `COc1ccc(NC(=O)N[C@H]2[C@H](O)[C@@H](N3CCOCC3)[C@@H]3OC[C@H]2O3)cc1` [CBK288820]: 101%; for `Cc1nc(S(=O)(=O)N2CCC(C(=O)N3CCCC3)CC2)cn1C` [CBK305786]: 88.3%.
Same read-out and setting: to `CCCC/C=C/c1cnc2[nH]c(=O)n(CCc3cccnc3)c2n1` [CBK064496] belongs 92.7%; to `CCn1nc(C2CCCC2)nc1-c1cnc2ccnn2c1C` [CBK306626], 87.1%; to `Fc1ccc(CCN2CCC(Oc3cncc(OCC4COc5ccccc5O4)n3)C2)cc1` (stereo not shown) [CBK084383], 99.8%.
On the same count and under the same terms, the same measure for `O=c1[nH]ccn1CCNc1ccc(-c2cccc3cccnc23)cn1` [CBK037658]: 79.2%.
Turning to `Cc1cc(NC(=O)c2ccc3c(c2)C(=O)N(CC2CCCO2)C3=O)no1` (stereo not shown) [CBK072998], the viability at 28.5 h, 10 µM worked out at 90.2%.
Same read-out and setting: to `CS(=O)(=O)N[C@H]1CO[C@H]2[C@@H]1OC[C@@H]2Nc1nccc(-c2ccco2)n1` [CBK289525] belongs 96.4%.
The same measure, in the same setting: the same measure for `NC(=O)C1(Cc2ccc(-c3ccccc3)cc2)CCN(C(=O)Cc2ccccc2)CC1` [CBK285771]: 115%.
As for `Cc1c(NC(=O)c2ccccc2Cl)c(=O)n(-c2ccccc2)n1C` [CBK088068], the viability at 28.5 h, 10 µM was 105%.
Consider `COc1ncc(-c2nccnc2Oc2cccc(NC(C)=O)c2)c(OC)n1` [CBK106747], for which the viability at 28.5 h, 10 µM was 89.6%.
Same read-out and setting: the same measure for `O=C(O)C/N=C1/CCCc2ccccc2N1` [CBK261809]: 90.7%; for `Cc1cc(Cl)c(S(=O)(=O)N2CCN(c3ccccn3)CC2)cc1OCC(N)=O` [CBK266553]: 117%.
On the same count and under the same terms, the same measure for `Cc1nn(Cc2cccc3ccccc23)c(C)c1NC(=O)c1ccccn1` [CBK269936]: 105%; for `O=[N+]([O-])c1cccc(S(=O)(=O)Nc2ccc(C(O)(C(F)(F)F)C(F)(F)F)cc2)c1` [CBK062093]: 102%.
Same read-out and setting: the same measure for `Cc1cc(C[C@@H]2COC[C@H]2NCc2c(F)cccc2Cl)on1` [CBK282994]: 83.4%.
As for `CCOC(=O)NC(=O)CSc1nc2ccccc2[nH]1` [CBK267443], the viability at 28.5 h, 10 µM came out at 91.9%.
Same read-out and setting: the same measure for `Cc1cc(=O)n2ncn(CC(=O)NCCOc3ccccc3)c2c1` [CBK305823]: 99.3%.
Still for that read-out and setting: to `COc1cc(-c2nccnc2N[C@@H]2CCN(Cc3ccccc3)C2)cc(OC)c1OC` [CBK037651] belongs 96.7%.
On the same count and under the same terms, to `COc1cccc2ncn(CCCc3nc(C)c(C)s3)c(=O)c12` [CBK307208] belongs 95.2%.
Regarding `Cc1nc(C2CCCN2C(=O)CC2CCCC2)nc2c1CCCN2Cc1ccccn1` (stereo not shown) [CBK286252], the viability at 28.5 h, 10 µM is 105%.

Still in this series, the particulars now being: human, hela cells, % viability, bulk resorufin, single well.
Take `O=C(Cn1c(=O)oc2cc(Cl)ccc21)N1CCC2(CC1)OCCO2` [CBK304652]: the viability at 28.5 h, 10 µM turned out to be 97%.
Same read-out and setting: the same measure for `Cc1ccc2[nH]cc(CCN)c2c1` [CBK004365]: 103%.
